Results taken from patent US4327097A, “Novel penicillins” (Toyama Chemical Co., Ltd., priority 1974, dated 1982).
Values after ≈ are worked out from the molar mass of the structure shown.

How the values were obtained:
Escherichia coli NIHJ = test: MIC, plate method, standard strains; format: cell-based; conditions: Table 4, standard strain; unit assumed
Outline: (§1)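 Minimum inhibitory concentrations are determined by agar plate dilution using Heart infusion agar (pH 7.4). Each plate receives an inoculum of 10^4 cells.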

Klebsiella pneumoniae [1] = test: MIC, plate method, standard strains; format: cell-based; conditions: Table 4, standard strain; unit assumed
Outline: as §1

Proteus vulgaris 3027 = test: MIC, plate method, standard strains; format: cell-based; conditions: Table 4, standard strain; unit assumed
Outline: as §1

[2] = test system: Pseudomonas aeruginosa I.F.O.; test: MIC, plate method, standard strains; format: cell-based; conditions: Table 4, standard strain; unit assumed
Outline: as §1

[3] = test system: Staphylococcus aureus 209p; test: MIC, plate method, standard strains; format: cell-based; conditions: Table 4, standard strain; unit assumed
Outline: as §1

Staphylococcus aureus = test: MIC against clinical isolates; format: cell-based; conditions: Table 6-1, clinical isolate; unit assumed
Escherichia coli = test: MIC against clinical isolates; format: cell-based; conditions: Table 6-2, clinical isolate; unit assumed
Pseudomonas aeruginosa = test: MIC against clinical isolates; format: cell-based; conditions: unit assumed; for MIC Pseudomonas aeruginosa GN / MIC Pseudomonas aeruginosa GN4 / MIC Pseudomonas aeruginosa GN 82 / MIC Pseudomonas aeruginosa GN 221 / MIC Pseudomonas aeruginosa GN 376 / MIC Pseudomonas aeruginosa GN 1035 / MIC Pseudomonas aeruginosa GN 1091 / MIC Pseudomonas aeruginosa GN 2565: Table 6-3, clinical isolate; for MIC Pseudomonas aeruginosa GN: strain number not given; for MIC Pseudomonas aeruginosa S-1: Table 6-4, clinical isolate
Klebsiella pneumoniae [4] = test: MIC against clinical isolates; format: cell-based; conditions: Table 6-4, clinical isolate; unit assumed
Proteus mirabilis = test: MIC against clinical isolates; format: cell-based; conditions: Table 6-5, clinical isolate; unit assumed
Proteus morganii = test: MIC against clinical isolates; format: cell-based; conditions: Table 6-5, clinical isolate; unit assumed
Proteus vulgaris = test: MIC against clinical isolates; format: cell-based; conditions: Table 6-5, clinical isolate; unit assumed
Proteus rettgeri = test: MIC against clinical isolates; format: cell-based; conditions: Table 6-5, clinical isolate; unit assumed
[5] = target: β-lactamase, Escherichia freundii GN 346 (Citrobacter freundii, UniProt Q46041); test: Resistant activity against β-lactamase, iodometric assay; format: biochemical; conditions: control Cephalorizine = 100
Chain of β-lactamase, Escherichia freundii GN 346 (Q46041 entry or part of it): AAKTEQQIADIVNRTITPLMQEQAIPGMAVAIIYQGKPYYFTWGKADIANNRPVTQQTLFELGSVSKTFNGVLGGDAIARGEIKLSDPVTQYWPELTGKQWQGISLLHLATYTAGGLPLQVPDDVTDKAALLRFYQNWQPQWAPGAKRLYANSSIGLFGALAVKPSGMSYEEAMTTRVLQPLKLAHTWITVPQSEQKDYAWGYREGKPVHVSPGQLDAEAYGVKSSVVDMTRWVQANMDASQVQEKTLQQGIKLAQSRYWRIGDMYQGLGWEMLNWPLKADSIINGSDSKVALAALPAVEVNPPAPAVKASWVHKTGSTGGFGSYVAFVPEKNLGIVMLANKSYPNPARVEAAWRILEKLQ
Description: (§2) (4) Resistant activity of each cephalosporin compound against β-lactamase, Proteus vulgaris GN 76 and Escherichia freundii GN 346:
(§3) The resistant activity of each cephalosporin compound against β-lactamase was measured in the manner described below.
(§4) β-lactamase was prepared from Proteus vulgaris GN 76 and Escherichia freundii GN 346. 10 ml of an overnight culture in Heart Infusion broth was diluted with 100 ml of a medium containing 2 g of yeast extract, 10 g of polypeptone, 2 g of glucose, 7 g of disodium hydrogen phosphate, 2 g of potassium dihydrogen phosphate, 1.2 g of ammonium sulfate and 0.4 g of magnesium sulfate, per liter, and incubated with shaking at 37° C. After incubation of 2 hrs, Penicillin G (50 μg/ml) was added as the inducer, and further incubated for 2 hrs. The resulting cells were collected by centrifugation (5,000 r.p.m.×10 min.) and washed two times with 0.1 M phosphate buffer (pH 7.0). Subsequently, the cells were subjected to sonication (20 KHz, 5 min.) and then centrifuged at 15,000 r.p.m. for 60 min. By using the supernatant of enzyme fluid, the stability of each compound against β-lactamase was determined by the iodometric assay method. Each numeral shown in Table 7-2 is a relative activity value calculated by assuming as 100 the activity of the control Cephalorizine.

[6] = target: T1, β-lactamase, Proteus vulgaris GN 76 (Proteus vulgaris, UniProt P52664); test: as above; format: biochemical; conditions: control Cephalorizine = 100
T1 construct: By using the supernatant of enzyme fluid; endogenous in cells; host or cells: Proteus vulgaris GN 76 (penicillin G-induced cells, sonicated, 15,000 r.p.m. supernatant)
T1 sequence (P52664 30-300): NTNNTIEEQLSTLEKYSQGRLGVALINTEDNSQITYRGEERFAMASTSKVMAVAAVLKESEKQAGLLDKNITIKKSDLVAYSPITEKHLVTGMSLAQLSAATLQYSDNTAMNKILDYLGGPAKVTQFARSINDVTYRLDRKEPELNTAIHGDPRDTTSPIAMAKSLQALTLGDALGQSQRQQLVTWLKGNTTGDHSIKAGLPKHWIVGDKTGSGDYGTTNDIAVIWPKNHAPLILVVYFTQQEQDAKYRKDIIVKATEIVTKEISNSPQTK
Description: as §2, §3, §4

SMILES | MIC Escherichia coli NIHJ (Escherichia coli NIHJ) | MIC Klebsiella pneumoniae (Klebsiella pneumoniae [1]) | MIC Proteus vulgaris 3027 (Proteus vulgaris 3027) | MIC Pseudomonas aeruginosa I.F.O. [2] | MIC Staphylococcus aureus 209p [3] | MIC Staphylococcus aureus F-1 (Staphylococcus aureus) | MIC Staphylococcus aureus MS 8588 (Staphylococcus aureus) | MIC Staphylococcus aureus MS 8596 (Staphylococcus aureus) | MIC Staphylococcus aureus MS 8619 (Staphylococcus aureus) | MIC Staphylococcus aureus MS 8684 (Staphylococcus aureus) | MIC Escherichia coli GN 3435 (Escherichia coli) | MIC Escherichia coli GN 3452 (Escherichia coli) | MIC Escherichia coli GN 3465 (Escherichia coli) | MIC Escherichia coli K-2 (Escherichia coli) | MIC Escherichia coli K-4 (Escherichia coli) | MIC Pseudomonas aeruginosa GN (Pseudomonas aeruginosa) | MIC Pseudomonas aeruginosa GN4 (Pseudomonas aeruginosa) | MIC Pseudomonas aeruginosa GN 82 (Pseudomonas aeruginosa) | MIC Pseudomonas aeruginosa GN 221 (Pseudomonas aeruginosa) | MIC Pseudomonas aeruginosa GN 376 (Pseudomonas aeruginosa) | other results
CCCCCCCCN1CCN(C(=O)N[C@@H](C(=O)NC2C(=O)N3C(C(=O)O)=C(CSc4nnnn4C)CSC23)c2ccccc2)C(=O)C1=O (single isomer, unassigned) [Compound No. 74] | 0.2 µg/mL (≈ 0.28 µM) | 0.79 µg/mL (≈ 1.11 µM) | 1.57 µg/mL (≈ 2.2 µM) | 12.5 µg/mL (≈ 17.5 µM) | 1.57 µg/mL (≈ 2.2 µM) | 0.78 µg/mL (≈ 1.09 µM) | 0.78 µg/mL (≈ 1.09 µM) | 0.78 µg/mL (≈ 1.09 µM) | 0.78 µg/mL (≈ 1.09 µM) | 0.78 µg/mL (≈ 1.09 µM) | 0.78 µg/mL (≈ 1.09 µM) | 1.56 µg/mL (≈ 2.19 µM) | 1.56 µg/mL (≈ 2.19 µM) | 3.13 µg/mL (≈ 4.38 µM) | 1.56 µg/mL (≈ 2.19 µM) | 25 µg/mL (≈ 35 µM) | 50 µg/mL (≈ 70 µM) | 25 µg/mL (≈ 35 µM) | 50 µg/mL (≈ 70 µM) | 50 µg/mL (≈ 70 µM) | MIC Pseudomonas aeruginosa GN 1035 (Pseudomonas aeruginosa): 25 µg/mL (≈ 35 µM); MIC Pseudomonas aeruginosa GN 1091 (Pseudomonas aeruginosa): 25 µg/mL (≈ 35 µM); MIC Pseudomonas aeruginosa GN 2565 (Pseudomonas aeruginosa): 50 µg/mL (≈ 70 µM); MIC Pseudomonas aeruginosa S-1 (Pseudomonas aeruginosa): 50 µg/mL (≈ 70 µM); MIC Klebsiella pneumoniae GN 917 (Klebsiella pneumoniae [4]): 1.56 µg/mL (≈ 2.19 µM); MIC Klebsiella pneumoniae GN 4081 (Klebsiella pneumoniae [4]): 1.56 µg/mL (≈ 2.19 µM); MIC Proteus mirabilis (Proteus mirabilis): 0.39 µg/mL (≈ 0.546 µM); MIC Proteus morganii (Proteus morganii): 0.78 µg/mL (≈ 1.09 µM); MIC Proteus vulgaris (Proteus vulgaris): 0.78 µg/mL (≈ 1.09 µM); MIC Proteus rettgeri (Proteus rettgeri): 6.25 µg/mL (≈ 8.76 µM); Relative activity (%) against β-lactamase, E. freundii GN 346 [5]: 0.03%; Relative activity (%) against β-lactamase, Pr. vulgaris GN 76 [6]: 5%
CCN1CCN(C(=O)NC(C(=O)NC2C(=O)N3C(C(=O)O)=C(CSc4nnnn4C)CSC23)c2ccc(O)cc2)C(=O)C1=O (stereo not drawn) [Compound No. 72] | < 0.1 µg/mL | < 0.1 µg/mL | 0.4 µg/mL (≈ 0.62 µM) | 6.25 µg/mL (≈ 9.68 µM) | < 1.57 µg/mL | 1.56 µg/mL (≈ 2.42 µM) | 1.56 µg/mL (≈ 2.42 µM) | 3.13 µg/mL (≈ 4.85 µM) | 1.56 µg/mL (≈ 2.42 µM) | 1.56 µg/mL (≈ 2.42 µM) | 0.1 µg/mL (≈ 0.155 µM) | 0.2 µg/mL (≈ 0.31 µM) | 1.56 µg/mL (≈ 2.42 µM) | 0.39 µg/mL (≈ 0.604 µM) | 0.39 µg/mL (≈ 0.604 µM) | 12.5 µg/mL (≈ 19.4 µM) | 12.5 µg/mL (≈ 19.4 µM) | 6.25 µg/mL (≈ 9.68 µM) | 6.25 µg/mL (≈ 9.68 µM) | 6.25 µg/mL (≈ 9.68 µM) | MIC Pseudomonas aeruginosa GN 1035 (Pseudomonas aeruginosa): 25 µg/mL (≈ 38.7 µM); MIC Pseudomonas aeruginosa GN 1091 (Pseudomonas aeruginosa): 6.25 µg/mL (≈ 9.68 µM); MIC Pseudomonas aeruginosa GN 2565 (Pseudomonas aeruginosa): 25 µg/mL (≈ 38.7 µM); MIC Pseudomonas aeruginosa S-1 (Pseudomonas aeruginosa): 12.5 µg/mL (≈ 19.4 µM); MIC Klebsiella pneumoniae GN 917 (Klebsiella pneumoniae [4]): 0.2 µg/mL (≈ 0.31 µM); MIC Klebsiella pneumoniae GN 4081 (Klebsiella pneumoniae [4]): 1.56 µg/mL (≈ 2.42 µM); MIC Proteus mirabilis (Proteus mirabilis): 0.78 µg/mL (≈ 1.21 µM); MIC Proteus morganii (Proteus morganii): 0.78 µg/mL (≈ 1.21 µM); MIC Proteus vulgaris (Proteus vulgaris): 0.39 µg/mL (≈ 0.604 µM); MIC Proteus rettgeri (Proteus rettgeri): 1.56 µg/mL (≈ 2.42 µM); Relative activity (%) against β-lactamase, E. freundii GN 346 [5]: 0.2%; Relative activity (%) against β-lactamase, Pr. vulgaris GN 76 [6]: 7%
CCCCN1CCN(C(=O)NC(C(=O)NC2C(=O)N3C(C(=O)O)=C(CSc4nnnn4C)CSC23)c2ccccc2)C(=O)C1=O (single isomer, unassigned) [Compound No. 73] | < 0.1 µg/mL | 0.2 µg/mL (≈ 0.304 µM) | 1.57 µg/mL (≈ 2.39 µM) | 25 µg/mL (≈ 38 µM) | 1.57 µg/mL (≈ 2.39 µM) | 1.56 µg/mL (≈ 2.37 µM) | 1.56 µg/mL (≈ 2.37 µM) | 3.13 µg/mL (≈ 4.76 µM) | 1.56 µg/mL (≈ 2.37 µM) | 1.56 µg/mL (≈ 2.37 µM) | 0.78 µg/mL (≈ 1.19 µM) | 0.78 µg/mL (≈ 1.19 µM) | 1.56 µg/mL (≈ 2.37 µM) | 1.56 µg/mL (≈ 2.37 µM) | 0.78 µg/mL (≈ 1.19 µM) | 12.5 µg/mL (≈ 19 µM) | 12.5 µg/mL (≈ 19 µM) | 12.5 µg/mL (≈ 19 µM) | 12.5 µg/mL (≈ 19 µM) | 12.5 µg/mL (≈ 19 µM) | MIC Pseudomonas aeruginosa GN 1035 (Pseudomonas aeruginosa): 50 µg/mL (≈ 76 µM); MIC Pseudomonas aeruginosa GN 1091 (Pseudomonas aeruginosa): 12.5 µg/mL (≈ 19 µM); MIC Pseudomonas aeruginosa GN 2565 (Pseudomonas aeruginosa): 25 µg/mL (≈ 38 µM); MIC Pseudomonas aeruginosa S-1 (Pseudomonas aeruginosa): 50 µg/mL (≈ 76 µM); MIC Klebsiella pneumoniae GN 917 (Klebsiella pneumoniae [4]): 0.78 µg/mL (≈ 1.19 µM); MIC Klebsiella pneumoniae GN 4081 (Klebsiella pneumoniae [4]): 1.56 µg/mL (≈ 2.37 µM); MIC Proteus mirabilis (Proteus mirabilis): 0.39 µg/mL (≈ 0.593 µM); MIC Proteus morganii (Proteus morganii): 0.78 µg/mL (≈ 1.19 µM); MIC Proteus vulgaris (Proteus vulgaris): 0.78 µg/mL (≈ 1.19 µM); MIC Proteus rettgeri (Proteus rettgeri): 3.13 µg/mL (≈ 4.76 µM); Relative activity (%) against β-lactamase, E. freundii GN 346 [5]: 0.1%; Relative activity (%) against β-lactamase, Pr. vulgaris GN 76 [6]: 4%
